Experimental data as given in the NIST ThermoML archive (doi:10.1016/j.fluid.2013.10.029).
± gives the expanded uncertainty stated by the source.

Experiment: excess molar enthalpy (molar enthalpy of mixing); xn = mol fraction of the nth substance listed
Conditions: 298.15 K, 101 kPa, Liquid, isothermal titration calorimeter

c1cc[nH]c1 [pyrrole] + c1ccccc1
excess molar enthalpy (x1 = 0.015): 0.017 ± 0.000884 kcal/mol | excess molar enthalpy (x1 = 0.03): 0.0293 ± 0.000932 kcal/mol | excess molar enthalpy (x1 = 0.0448): 0.0406 ± 0.000956 kcal/mol | excess molar enthalpy (x1 = 0.0597): 0.0508 ± 0.00098 kcal/mol | excess molar enthalpy (x1 = 0.0747): 0.0604 ± 0.00105 kcal/mol | excess molar enthalpy (x1 = 0.0896): 0.0691 ± 0.0011 kcal/mol | excess molar enthalpy (x1 = 0.1045): 0.0773 ± 0.00117 kcal/mol | excess molar enthalpy (x1 = 0.1193): 0.0847 ± 0.00124 kcal/mol | excess molar enthalpy (x1 = 0.1343): 0.0917 ± 0.00131 kcal/mol | excess molar enthalpy (x1 = 0.1493): 0.0981 ± 0.00136 kcal/mol | excess molar enthalpy (x1 = 0.1642): 0.104 ± 0.00143 kcal/mol | excess molar enthalpy (x1 = 0.1792): 0.109 ± 0.00148 kcal/mol | excess molar enthalpy (x1 = 0.1942): 0.115 ± 0.00153 kcal/mol | excess molar enthalpy (x1 = 0.2092): 0.119 ± 0.0016 kcal/mol | excess molar enthalpy (x1 = 0.2242): 0.123 ± 0.00165 kcal/mol | excess molar enthalpy (x1 = 0.2392): 0.127 ± 0.00167 kcal/mol | excess molar enthalpy (x1 = 0.2542): 0.131 ± 0.00172 kcal/mol | excess molar enthalpy (x1 = 0.2691): 0.134 ± 0.00174 kcal/mol | excess molar enthalpy (x1 = 0.284): 0.136 ± 0.00179 kcal/mol | excess molar enthalpy (x1 = 0.299): 0.139 ± 0.00182 kcal/mol | excess molar enthalpy (x1 = 0.314): 0.141 ± 0.00184 kcal/mol | excess molar enthalpy (x1 = 0.329): 0.143 ± 0.00186 kcal/mol | excess molar enthalpy (x1 = 0.344): 0.144 ± 0.00186 kcal/mol | excess molar enthalpy (x1 = 0.359): 0.145 ± 0.00189 kcal/mol | excess molar enthalpy (x1 = 0.374): 0.146 ± 0.00189 kcal/mol | excess molar enthalpy (x1 = 0.389): 0.147 ± 0.00191 kcal/mol | excess molar enthalpy (x1 = 0.404): 0.148 ± 0.00191 kcal/mol | excess molar enthalpy (x1 = 0.419): 0.148 ± 0.00191 kcal/mol | excess molar enthalpy (x1 = 0.434): 0.148 ± 0.00191 kcal/mol | excess molar enthalpy (x1 = 0.449): 0.148 ± 0.00191 kcal/mol | excess molar enthalpy (x1 = 0.464): 0.147 ± 0.00191 kcal/mol | excess molar enthalpy (x1 = 0.479): 0.146 ± 0.00189 kcal/mol | excess molar enthalpy (x1 = 0.494): 0.146 ± 0.00189 kcal/mol | excess molar enthalpy (x1 = 0.5091): 0.144 ± 0.00186 kcal/mol | excess molar enthalpy (x1 = 0.5241): 0.143 ± 0.00186 kcal/mol | excess molar enthalpy (x1 = 0.5391): 0.142 ± 0.00184 kcal/mol | excess molar enthalpy (x1 = 0.5541): 0.14 ± 0.00182 kcal/mol | excess molar enthalpy (x1 = 0.5613): 0.14 ± 0.00182 kcal/mol | excess molar enthalpy (x1 = 0.5683): 0.139 ± 0.00182 kcal/mol | excess molar enthalpy (x1 = 0.5692): 0.138 ± 0.00179 kcal/mol | excess molar enthalpy (x1 = 0.583): 0.137 ± 0.00227 kcal/mol | excess molar enthalpy (x1 = 0.5842): 0.136 ± 0.00225 kcal/mol | excess molar enthalpy (x1 = 0.5977): 0.135 ± 0.00222 kcal/mol | excess molar enthalpy (x1 = 0.5993): 0.133 ± 0.0022 kcal/mol | excess molar enthalpy (x1 = 0.6122): 0.133 ± 0.00215 kcal/mol | excess molar enthalpy (x1 = 0.6143): 0.131 ± 0.00213 kcal/mol | excess molar enthalpy (x1 = 0.6267): 0.131 ± 0.00172 kcal/mol | excess molar enthalpy (x1 = 0.6411): 0.129 ± 0.0017 kcal/mol | excess molar enthalpy (x1 = 0.6554): 0.126 ± 0.00165 kcal/mol | excess molar enthalpy (x1 = 0.6696): 0.124 ± 0.00163 kcal/mol | excess molar enthalpy (x1 = 0.6838): 0.121 ± 0.0016 kcal/mol | excess molar enthalpy (x1 = 0.6978): 0.118 ± 0.00155 kcal/mol | excess molar enthalpy (x1 = 0.7118): 0.114 ± 0.00153 kcal/mol | excess molar enthalpy (x1 = 0.7257): 0.111 ± 0.00148 kcal/mol | excess molar enthalpy (x1 = 0.7395): 0.107 ± 0.00143 kcal/mol | excess molar enthalpy (x1 = 0.7533): 0.104 ± 0.00141 kcal/mol | excess molar enthalpy (x1 = 0.7669): 0.0996 ± 0.00136 kcal/mol | excess molar enthalpy (x1 = 0.7805): 0.0956 ± 0.00131 kcal/mol | excess molar enthalpy (x1 = 0.794): 0.0913 ± 0.00127 kcal/mol | excess molar enthalpy (x1 = 0.8074): 0.0868 ± 0.00122 kcal/mol | excess molar enthalpy (x1 = 0.8208): 0.0822 ± 0.00117 kcal/mol | excess molar enthalpy (x1 = 0.8341): 0.0774 ± 0.00112 kcal/mol | excess molar enthalpy (x1 = 0.8473): 0.0726 ± 0.00108 kcal/mol | excess molar enthalpy (x1 = 0.8604): 0.0674 ± 0.001 kcal/mol | excess molar enthalpy (x1 = 0.8735): 0.0622 ± 0.000956 kcal/mol | excess molar enthalpy (x1 = 0.8865): 0.0567 ± 0.000908 kcal/mol | excess molar enthalpy (x1 = 0.8993): 0.0511 ± 0.00086 kcal/mol | excess molar enthalpy (x1 = 0.9121): 0.0452 ± 0.000813 kcal/mol | excess molar enthalpy (x1 = 0.9249): 0.0392 ± 0.000765 kcal/mol | excess molar enthalpy (x1 = 0.9377): 0.0331 ± 0.000717 kcal/mol | excess molar enthalpy (x1 = 0.9502): 0.0269 ± 0.000669 kcal/mol | excess molar enthalpy (x1 = 0.9628): 0.0203 ± 0.000645 kcal/mol | excess molar enthalpy (x1 = 0.9753): 0.0138 ± 0.000621 kcal/mol | excess molar enthalpy (x1 = 0.9877): 0.00698 ± 0.000598 kcal/mol
